From patent publication US20100267561A1, “HERBICIDAL PYRIDAZINONE DERIVATIVES” (priority 2007, published 2010)

Legend:
Assay in all cases: Test B pre-/postemergence plant response
Type in all cases: in vivo
[1] = test system: Italian ryegrass (Lolium multiflorum)
Outline: (§1)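 Seeds were sown and sprayed preemergence, while plants at 2 to 18 cm (1- to 4-leaf stage) got postemergence sprays. Compounds were formulated in a non-phytotoxic solvent mixture with surfactant. After 13 to 15 days in a greenhouse, injury was rated visually against untreated controls, 0 (no effect) to 100 (complete control).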

[2] = test system: catchweed bedstraw (Galium aparine); details: Preemergence
Outline: as §1

[3] = test system: cocklebur (Xanthium strumarium)
Outline: as §1

[4] = test system: common (oilseed) sunflower (Helianthus annuus); details: Preemergence
Outline: as §1

[5] = test system: common ragweed (Ambrosia elation)
Outline: as §1

[6] = test system: downy bromegrass (Bromus tectorum)
Outline: as §1

[7] = test system: goosegrass (Eleusine indica)
Outline: as §1

[8] = test system: kochia (Kochia scoparia)
Outline: as §1

[9] = test system: large crabgrass (Digitaria sanguinalis)
Outline: as §1

[10] = test system: pigweed (Amaranthus retroflexus)
Outline: as §1

[11] = test system: soybean (Glycine max)
Outline: as §1

[12] = test system: surinam grass (Brachiaria decumbens)
Outline: as §1

[13] = test system: woolly cupgrass (Eriochloa villosa)
Outline: as §1

[14] = Postemergence, 31 g ai/ha, scale 0 to 100, 0 no effect, 100 complete control
[15] = Postemergence, 62 g ai/ha, scale 0 to 100
[16] = Postemergence, 125 g ai/ha, scale 0 to 100
[17] = Postemergence, 250 g ai/ha, scale 0 to 100
[18] = Preemergence, 31 g ai/ha, 0 to 100 scale, 0 no effect, 100 complete control
[19] = Preemergence, 62 g ai/ha, scale 0 to 100
[20] = Preemergence, 125 g ai/ha, scale 0 to 100
[21] = Preemergence, 250 g ai/ha, scale 0 to 100
[22] = 31 g ai/ha, 0 to 100 scale, 0 no effect, 100 complete control

Cc1cc(-c2ccc(Br)cc2)nn1-c1c(OC(=O)OC(C)C)cnn(C)c1=O [Compound 6]
Plant response rating, Ryegrass, Italian [1, 14]: 100
Plant response rating, Ryegrass, Italian [1, 15]: 100
Plant response rating, Ryegrass, Italian [1, 16]: 100
Plant response rating, Ryegrass, Italian [1, 17]: 100
Plant response rating, Ryegrass, Italian [1, 18]: 90
Plant response rating, Ryegrass, Italian [1, 19]: 100
Plant response rating, Ryegrass, Italian [1, 20]: 100
Plant response rating, Ryegrass, Italian [1, 21]: 100
Plant response rating, Galium [2, 22]: 0
Plant response rating, Galium ([2]; 125 g ai/ha, scale 0 to 100): 70
Plant response rating, Galium ([2]; 250 g ai/ha, scale 0 to 100): 70
Plant response rating, Cocklebur [3, 14]: 0
Plant response rating, Cocklebur [3, 15]: 0
Plant response rating, Cocklebur [3, 16]: 0
Plant response rating, Cocklebur [3, 17]: 40
Plant response rating, Cocklebur [3, 18]: 0
Plant response rating, Cocklebur [3, 19]: 0
Plant response rating, Cocklebur [3, 20]: 0
Plant response rating, Cocklebur [3, 21]: 0
Plant response rating, Sunflower [4, 22]: 0
Plant response rating, Sunflower ([4]; 62 g ai/ha, scale 0 to 100): 0
Plant response rating, Sunflower ([4]; 125 g ai/ha, scale 0 to 100): 0
Plant response rating, Sunflower ([4]; 250 g ai/ha, scale 0 to 100): 0
Plant response rating, Ragweed [5, 14]: 0
Plant response rating, Ragweed [5, 15]: 0
Plant response rating, Ragweed [5, 16]: 0
Plant response rating, Ragweed [5, 17]: 50
Plant response rating, Ragweed [5, 18]: 0
Plant response rating, Ragweed [5, 19]: 0
Plant response rating, Ragweed [5, 20]: 20
Plant response rating, Ragweed [5, 21]: 20
Plant response rating, Bromegrass, Downy [6, 14]: 5
Plant response rating, Bromegrass, Downy [6, 15]: 5
Plant response rating, Bromegrass, Downy [6, 16]: 5
Plant response rating, Bromegrass, Downy [6, 17]: 10
Plant response rating, Bromegrass, Downy [6, 18]: 50
Plant response rating, Bromegrass, Downy [6, 19]: 65
Plant response rating, Bromegrass, Downy [6, 20]: 65
Plant response rating, Bromegrass, Downy ([6]; Preemergence, 250 g ai/ha, scale 0 to 100 (0 no effect, 100 complete control)): 95
Plant response rating, Goosegrass [7, 14]: 95
Plant response rating, Goosegrass [7, 15]: 100
Plant response rating, Goosegrass [7, 16]: 100
Plant response rating, Goosegrass [7, 17]: 100
Plant response rating, Goosegrass [7, 18]: 80
Plant response rating, Goosegrass [7, 19]: 95
Plant response rating, Goosegrass [7, 20]: 100
Plant response rating, Goosegrass [7, 21]: 100
Plant response rating, Kochia [8, 14]: 0
Plant response rating, Kochia [8, 15]: 0
Plant response rating, Kochia [8, 16]: 20
Plant response rating, Kochia [8, 17]: 20
Plant response rating, Kochia [8, 18]: 0
Plant response rating, Kochia [8, 19]: 0
Plant response rating, Kochia [8, 20]: 20
Plant response rating, Kochia [8, 21]: 60
Plant response rating, Crabgrass, Large [9, 14]: 100
Plant response rating, Crabgrass, Large [9, 15]: 100
Plant response rating, Crabgrass, Large [9, 16]: 100
Plant response rating, Crabgrass, Large [9, 17]: 100
Plant response rating, Crabgrass, Large [9, 18]: 98
Plant response rating, Crabgrass, Large [9, 19]: 100
Plant response rating, Crabgrass, Large [9, 20]: 100
Plant response rating, Crabgrass, Large [9, 21]: 100
Plant response rating, Pigweed [10, 14]: 0
Plant response rating, Pigweed [10, 15]: 0
Plant response rating, Pigweed [10, 16]: 0
Plant response rating, Pigweed [10, 17]: 40
Plant response rating, Pigweed [10, 19]: 0
Plant response rating, Pigweed [10, 20]: 30
Plant response rating, Pigweed [10, 21]: 60
Plant response rating, Soybean [11, 14]: 0
Plant response rating, Soybean [11, 15]: 60
Plant response rating, Soybean [11, 16]: 75
Plant response rating, Soybean [11, 17]: 90
Plant response rating, Soybean [11, 18]: 0
Plant response rating, Soybean [11, 19]: 0
Plant response rating, Soybean [11, 20]: 40
Plant response rating, Soybean [11, 21]: 70
Plant response rating, Surinam Grass [12, 14]: 100
Plant response rating, Surinam Grass [12, 15]: 100
Plant response rating, Surinam Grass [12, 16]: 100
Plant response rating, Surinam Grass [12, 17]: 100
Plant response rating, Surinam Grass [12, 18]: 98
Plant response rating, Surinam Grass [12, 19]: 98
Plant response rating, Surinam Grass [12, 20]: 100
Plant response rating, Surinam Grass [12, 21]: 100
Plant response rating, Cupgrass, Woolly [13, 14]: 100
Plant response rating, Cupgrass, Woolly [13, 15]: 100
Plant response rating, Cupgrass, Woolly [13, 16]: 100
Plant response rating, Cupgrass, Woolly [13, 17]: 100
Plant response rating, Cupgrass, Woolly [13, 18]: 85
Plant response rating, Cupgrass, Woolly [13, 19]: 85
Plant response rating, Cupgrass, Woolly [13, 20]: 85
Plant response rating, Cupgrass, Woolly [13, 21]: 85
